In patent US20140255361A1, “ESTROGEN-RECEPTOR BASED LIGAND SYSTEM FOR REGULATING PROTEIN STABILITY” (The Board of Trustees Of The Leland Stanford Junior …, priority 2013, published 2014):
Changes are numbered by the printed parent chain. Where two headings read alike, the source gives them in different places.

Tests used:
[1] = biological target: T1, estrogen receptor ligand binding domain mutants (four and six mutations) (Homo sapiens, UniProt P03372, G521R/L384M/M421G/N519S/T371A/Y537S); experiment: Drug-dependent stability of ERLBD mutant clones with YFP or GFP reporter; assay type: cell-based; conditions: relative to the parent ESR1 sequence
T1 construct: residues 305-549 of estrogen receptor-1, ERS1; YFP or GFP reporter
T1 sequence (P03372 305-549 T371A/L384M/M421G/N519S/G521R/Y537S): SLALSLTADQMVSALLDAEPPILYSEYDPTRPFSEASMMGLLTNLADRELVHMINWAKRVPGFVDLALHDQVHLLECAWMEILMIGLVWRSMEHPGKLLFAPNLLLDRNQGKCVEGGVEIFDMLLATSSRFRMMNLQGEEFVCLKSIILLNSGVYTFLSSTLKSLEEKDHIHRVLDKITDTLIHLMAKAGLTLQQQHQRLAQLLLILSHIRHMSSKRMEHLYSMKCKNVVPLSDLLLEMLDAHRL

[2] = biological target: T2, four point mutant of the estrogen receptor ligand binding domain (L384M, M421G, G521R and Y437S) fused to GFP (Homo sapiens, UniProt P03372, G521R/L384M/M421G/Y537S); conditions: cross-hatched bars, FIG. 7A
T2 sequence (P03372 with tags, fused parts or gaps L384M/M421G/G521R/Y537S): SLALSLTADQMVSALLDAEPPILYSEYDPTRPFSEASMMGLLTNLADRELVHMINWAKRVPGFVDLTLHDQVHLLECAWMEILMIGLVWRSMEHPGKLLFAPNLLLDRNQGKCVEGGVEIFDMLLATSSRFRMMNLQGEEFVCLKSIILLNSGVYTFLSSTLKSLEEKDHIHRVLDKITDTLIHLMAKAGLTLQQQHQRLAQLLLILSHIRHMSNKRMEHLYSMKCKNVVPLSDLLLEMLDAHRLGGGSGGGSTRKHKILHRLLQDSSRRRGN

GFP-ERLID fusion protein = biological target: T3, GFP-ERLID fusion protein (Homo sapiens, UniProt P03372)
T3 sequence (P03372 with tags, fused parts or gaps): T2 sequence (P03372 with tags, fused parts or gaps L384M/M421G/G521R/Y537S) with M80L, G117M, R217G, S233Y

wild-type ER LBDs = conditions: cited from earlier work
GFP-LID = experiment: Stability of GFP-LID fusion protein by flow cytometry (MFI) in NIH3T3 cells; assay type: cell-based; conditions: 1 μM Shield-1, 24 hours, FIG. 2
Source text: (§1) In studies conducted in support of the invention, and with reference to the Materials and Methods set forth in the Examples section below, the stabilities of two LID domain fusion proteins, a first generation construct based on the FKBP protein, here called “GFP-LID” and a next-generation construct having improved characteristics, here called “GFP-LID #15” were compared. […] For this study, NIH3T3 fibroblast cells were infected with retrovirus expressing GFP-LID or GFP-LID #15. Transduced NIH3T3 cells were treated with or without 1 μM Shield-1 for 24 hours. The fluorescence intensities of these GFP fusions were analyzed by flow cytometry. The median fluorescence intensity (MFI) was used to determine the stability of the GFP fusion proteins.
(§2) The INX ecotropic packaging cell line was transfected using standard Lipofectamine 2000 protocols. Viral supernatants were harvested 48 h post-transfection, filtered. NIH3T3 cells were incubated with the retroviral supernatants supplemented with 4 μg/ml polybrene for 4 h at 37° C. Cells were washed once with PBS and cultured in growth media for 48 hrs to allow for viral integration, then assayed as described.
(§3) Twenty-four hours prior to analysis, transduced NIH3T3 cells were plated at 1×10^5 cells per well of a 12-well plate. […] Cells were analyzed at the Stanford Shared FACS Facility using Vantoo or LSRII with 10,000 events represented.

GFP-LID #15 = experiment: Stability of GFP-LID #15 fusion protein by flow cytometry (MFI) in NIH3T3 cells; assay type: cell-based; conditions: 1 μM Shield-1, 24 hours, FIG. 2
Source text: as §1, §2, §3

[3] = tested on: YFP-FKBP12 LID domain fusion protein; experiment: FACS screen of YFP fused to extended FKBP12 (LID domain) in NIH3T3 cells; assay type: cell-based, mouse
Source text: Human […] protein was modified to include a 19-residue peptide extension at the C-terminus of the FKBP12 protein. Genetic diversity was engineered into this C-terminal extension using synthetic oligonucleotides and PCR, and this library of extended FKBP genes was fused to the 3′-end of the YFP gene. A library of plasmids was stably introduced into NIH3T3 cells using retrovirus, and FACS was used to screen the transduced cells for cells expressing YFP in the absence of the small molecule ligand Shield-1. […] This domain is identified herein by SEQ ID NO: 1.

GFP-ERLID = GFP-ERLID (Homo sapiens, UniProt P03372)
HA-Bax-ERLID = HA-Bax-ERLID (Homo sapiens, UniProt P03372)
HA-hRPA2-ERLID = HA-hRPA2-ERLID (Homo sapiens, UniProt P03372)
HA-hUBC13-ERLID = HA-hUBC13-ERLID (Homo sapiens, UniProt P03372)
[4] = SEQ ID NO: 3 fused to GFP, open bars, FIG. 7A

Chain of HA-hRPA2-ERLID (P03372 with tags, fused parts or gaps): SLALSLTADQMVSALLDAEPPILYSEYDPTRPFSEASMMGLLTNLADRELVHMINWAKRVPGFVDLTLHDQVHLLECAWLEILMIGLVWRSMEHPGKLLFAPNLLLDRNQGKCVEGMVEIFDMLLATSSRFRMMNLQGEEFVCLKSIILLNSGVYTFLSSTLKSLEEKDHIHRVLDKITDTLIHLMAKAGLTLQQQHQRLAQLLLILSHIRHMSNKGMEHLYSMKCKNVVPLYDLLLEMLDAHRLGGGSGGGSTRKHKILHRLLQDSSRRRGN

Molecule: O=C1CCC2(Cc3ccc(Cl)cc3)Cc3cc(O)ccc3C2=C1c1ccc(OCCN2CCCCC2)cc1 (stereo not shown) [CMP8, 9a-(4-Chlorobenzyl)-7-hydroxy-4-[4-(2-piperidin-1-ylethoxy)phenyl]-1,2,9,9a-tetrahydro-3H-fluoren-3-one]
- dynamic range of stability in the presence of ligand [1]: large dynamic
- stability of mutant fusion protein (MFI) [2]: destabilization
- stability of wild type GFP-ERLID fusion protein (MFI) (GFP-ERLID fusion protein; [4]): destabilization
- binding to wild-type ER LBDs (wild-type ER LBDs): does not bind well

Molecule: CC[C@H](C(=O)N1CCCC[C@H]1C(=O)O[C@H](CCc1ccc(OC)c(OC)c1)c1cccc(OCCN2CCOCC2)c1)c1cc(OC)c(OC)c(OC)c1 [Shield-1]
- stability of GFP fusion protein (median fluorescence intensity) (GFP-LID): destabilized
- stability of GFP fusion protein (median fluorescence intensity) (GFP-LID #15): destabilized
- YFP levels on addition of ligand [3]: dropped significantly

Molecule: 4-hydroxytamoxifen [4-OHT]
- level of fusion protein by Western blot (GFP-ERLID): destabilized
- level of fusion protein by Western blot (HA-Bax-ERLID): destabilized
- level of fusion protein by Western blot (HA-hRPA2-ERLID): destabilized
- stability of mutant fusion protein (MFI) [2]: destabilization
- stability of GFP-ERLBD (MFI) as a function of amount of ligand (GFP-ERLID fusion protein): dose dependent destabilization
- stability of GFP-ERLID fusion protein (MFI) (GFP-ERLID fusion protein): induces degradation
- stability of fusion protein (MFI) after E2 washout with 4-hydroxytamoxifen in the wash solution (E2 wo+4OHT) (GFP-ERLID fusion protein): destabilizes
- stability of fusion protein (MFI) after ligand exposure (GFP-ERLID fusion protein): destabilizes
- stability of wild type GFP-ERLID fusion protein (MFI) (GFP-ERLID fusion protein): destabilization
- level of fusion protein by Western blot (HA-hUBC13-ERLID): destabilized

Molecule: C[C@]12CC[C@@H]3c4ccc(O)cc4C[C@@H](CCCCCCCCC[S+]([O-])CCCC(F)(F)C(F)(F)F)[C@H]3[C@@H]1CC[C@@H]2O (stereo partly shown) [fulvestrant]
- stability of GFP-ERLID fusion protein (GFP-ERLID fusion protein; 10 μM fulvestrant, NIH3T3 cells, FIG. 4): induced degradation
- stability of wild type GFP-ERLID fusion protein (MFI) (GFP-ERLID fusion protein; [4]): destabilization
